Source: patent EP0774455A1, “Excitatory amino acid receptor antagonists” (ELI LILLY AND COMPANY, priority 1995, dated 1997)
pIC50: −log10 of the molar value.

Legend:
mouse [1] = experiment: mouse elevated plus maze model; assay type: in vivo
mouse [2] = experiment: mouse conditioned active avoidance response model; assay type: in vivo
Text: (Pfeiffer & Jenney, Ann. N.Y. Acad. Sci., 66:[…], 1957; Maffii, J. Pharm. Pharmacol., 11: 129-139, 1959; Cook & Weidley, Ann; N.Y. Acad. Sci., 66: […], 1957; Janke, Handbook of Experimental Pharmacology, Vol. 55/I, New York: Plenum Press, 1978).

[3] = system: metabotropic glutamate receptors; experiment: selective displacement of 1S,3R-ACPD-sensitive [3H]glutamate binding to rat brain cell membranes (crude membranes of rat forebrain)
Method: The binding of [^3H]glutamate was conducted with crude membranes of rat forebrain as described by Schoepp and True. Schoepp and True, Neuroscience Lett., 145, 100-104 (1992) and Wright et al., J. Neurochemisty 63: 938-945 (1994).

Question: How did the anxiolytic effect (mouse [1]) turn out when `Cc1cccc(C[C@@H]2C[C@H]3[C@H](C(=O)O)[C@H]3[C@]2(N)C(=O)O)c1` (racemic) [Example 4, 1SR,2SR,3SR,5RS,6SR-Amino-3-((3-methyl)benzyl)bicyclo[3.1.0]hexane-2,6-dicarboxylic acid] was run?
Answer: anxiolytic effect

Question: With `N[C@@]1(C(=O)O)[C@H](Cc2ccc(F)c(F)c2F)C[C@H]2[C@H](C(=O)O)[C@H]21` (racemic) [Example 25, 1SR,2SR,3SR,5RS,6SR-2-Amino-3-((2,3,4-trifluoro)-benzyl)bicyclo[3.1.0]hexane-2,6-dicarboxylic acid] as the molecule, how does the neuroleptic properties (mouse [2]) read?
Answer: neuroleptic properties

Question: `NC1(C(=O)O)C(CCCc2ccccc2)CC2C(C(=O)O)C21` (stereo not drawn) [Example 1, Mixture of 1SR,2SR,3RS,5RS,6SR-2-amino-3-(3-phenylpropyl)bicyclo[3.1.0]-hexane-2,6-dicarboxylic acid and 1SR, 2RS, 3RS, 5RS, 6SR-2-amino-3-(3-phenylpropyl)bicyclo[3.1.0]hexane-2,6-dicarboxylic acid] was tested. Which pIC50 [3] did it give?
Answer: 6.49
